The test system of one series is SH-SY5Y. The experiment in a line: (§1) Activation of NF-KappaB (unknown origin) expressed in SH-SY5Y cells co-transfected with pNFkappaB-Luc plasmid measured after 24 hrs by Bright-Glo luciferase assay. The format is cell-based. Conditions: Homo sapiens; call rule not given here.
A short description of series [1]: Kinetic solubility of compound at pH 7.4 by shake flask method. Format: physicochemical. Conditions: buffer, read-out: Kinetic_solubility.
Series [2] in a line: as §1. Conditions: Homo sapiens. The format is cell-based.
Series [3] can be described thus: Drug uptake in plasma of SOD1-G93A mutant-induced ALS C57BL/6 mouse model at 50 mg/kg, ip measured within 30 mins. Format: ADME, organism-based. Conditions: in vivo, 0.5 h.
The nature of series [4]: Drug uptake in brain of SOD1-G93A mutant-induced ALS C57BL/6 mouse model at 50 mg/kg, ip measured within 30 mins. Format: ADME, organism-based. Conditions: in vivo, 0.5 h.
Series [5] in a line: Toxicity in SOD1-G93A mutant-induced ALS C57BL/6 mouse model assessed as effect on animal survival at 50 mg/kg, ip. Format: organism-based. The following applies: in vivo.

A word on the EC50: it is the concentration needed to bring the measured effect to its halfway point. A higher EC50 goes with lower potency in that assay.

Each structure is given as a SMILES string. ≈ marks a conversion by molar mass, not a printed value.

Regarding `COC(=O)c1ccc(-c2cnc(Nc3c(F)cccc3F)o2)cc1`, the ECmax in the series on SH-SY5Y turned out to be 42.6 µM.

In the series with SH-SY5Y, `O=C(O)c1cccc(-c2cnc(Nc3ccccc3F)o2)c1` came in with an ECmax of 23.5 µM. For the same molecule, in series [1], the solubility kinetic was found to be 56 µM (≈ 16.7 µg/mL).

`Cc1cccnc1Nc1nc(-c2ccccn2)cs1` registered an EC50 in series [2] of 210 nM. Further, the ECmax in the series on SH-SY5Y amounted to 40 µM. Further, the Drug uptake result in series [3] and in series [4] was “Active” throughout. Further, the Activity entry in series [5] was “Non-Toxic”.

With `O=C(/C=C\Nc1ccccc1Br)c1ccc2c(c1)OCO2`, the concentration for a half-maximal effect (EC50) in series [2] stood at 500 nM. In addition, the ECmax with SH-SY5Y came out at 26 µM. Further, the Drug uptake result in series [3] and in series [4] was “Active” throughout. Also, the Activity entry in series [5] is “Non-Toxic”.

The values above are taken from ChEMBL document CHEMBL4406917, “Approaches for Prevention and Treatment of Neurodegenerative Diseases: ALS and Alzheimer's” (ACS Med Chem Lett, 2019).
